Measurements as given in patent US11197965B2, “Method and system for the administration of a pulmonary surfactant by atomization” (CHIESI FARMACEUTICI S.p.A., priority 2013, dated 2021).

Settings: in vivo
Experimental: Old piglets, weighing between 0.8-2.0 kg, were used.
The procedure was carried out as follows: piglets inhaled 10 mg of lidocaine and lidocaine gel was applied in the oropharynx just before the insertion of a Mayo oropharyngeal atomization cannula. The piglets were then laid on one side according to the randomization protocol, and correct positioning of the oropharyngeal cannula just above the larynx entrance was assessed by fiberbronchoscopy. Curosurf® was thoroughly mixed with 300 MBq of Tc-labeled nanocolloid and the animals received a total of 200 mg/kg Curosurf® (80 mg/mL) through an atomization catheter placed inside the oropharyngeal airway. The surfactant atomization procedure was divided in 4 stages (doses): each stage consisted in the delivery of one fourth of the total surfactant dose with the piglet breathing spontaneously on nasal-CPAP (via special “snout-mask”, see details in methods), followed by 5 minutes of PS-ventilation with PEEP (via snout-mask) to avoid atelectasis and promote delivery of the surfactant to the lower airways. When all the surfactant had been delivered, the oropharyngeal cannula was removed and the piglet received PS-ventilation for 15 min. FiO2 was adjusted to maintain saturation above 85%. To secure the airway under transportation to the gamma camera and scintigraphy, the animals were endotracheally intubated and manually ventilated with a Laerdal Silicone Resuscitator.
The piglets were premedicated with i.m. ketamine, midazolam, and atropine, an ear vein was cannulated, and the animals were sedated with a continuous iv. infusion of dexmedetomedine and ketamine. Sedation was supplemented with small intermittent boluses of iv. propofol when needed. An arterial catheter was placed in the femoral artery under local anaesthesia. Invasive blood pressure, pulse oximetry, cerebral oximetry (INVOS), and the diaphragmatic electrical activity (NAVA catheter) were monitored in all animals.
Group-assignment was random, and arranged so that pigs from the same litter were distributed evenly among the groups, when possible. […]

amount of surfactant deposited into the lung compartment: more than 61% | percentage of surfactant deposited, pharynx (mean) (200 mg/kg): 11.1 percentage | percentage of surfactant deposited, trachea (mean) (200 mg/kg): 13.5 percentage
Substance: poractant alfa [Curosurf]
